US7091185B2, “Periodic antimicrobial peptides” (Dow Global Technologies Inc., priority 2003, dated 2006)
Like-named read-outs stand apart in the source and are kept apart here. Where no end group is shown, it is not given here.

How the values were obtained:
Red blood cells (RBC) = test: Red blood cell toxicity; format: cell-based
Red blood cell toxicity = format: cell-based; conditions: red blood cells (RBC)
E. coli ATCC 2592 = conditions: ATCC 2592
Procedure: (§1) The bacteria tested were P. aeruginosa American Type Culture Collection Number (ATCC) 10145, E. coli ATCC 2592, and S. aureus (methicillin reseistant) ATTC 33591.
(§2) All experiments were compared to bacterial growth under optimal growth conditions (37° C., pH 7.0, absence of additional salt, growth media—referred to as standard growth conditions). In each plate, no growth control (media alone), positive growth control (bacteria with no test sample), positive antimicrobial controls (agents with known antimicrobial activity) and test compounds were tested.
(§3) The plates were incubated overnight, and the relative percent growth determined by optical density at 620 nm (OD620) using a […] […] PLUS™. […] All samples were tested in duplicate and each assay was repeated at least twice. […] IC50 and MIC are reported in μg/ml.

[1] = tested on: S. aureus (methicillin resistant) ATCC 33591
Procedure: as §1, §2, §3

Cr. Neoformans 32045 = format: cell-based
Procedure: (§4) The MIC and IC50 values were determined by a broth microdilution method according to guidelines of the National Committee for Clinical Laboratory Standard as follows: In 96-well tissue culture plates, a fixed volume of bacterial suspension in 2× broth (as defined below) was added to the mixtures or individual compounds dispensed at concentrations varying from 1,000 to 1 μg/ml derived from serial two-fold dilutions in sterile water. The bacteria tested were P. aeruginosa American Type Culture Collection Number (ATCC) 10145, E. coli ATCC 2592, and S. aureus (methicillin reseistant) ATTC 33591.
(§5) The plates were incubated overnight, and the relative percent growth determined by optical density at 620 nm (OD620) using a TITERTEK MULTISKAN PLUS™. […] IC50 values were calculated using a sigmoidal curve fitting software program (GRAPHPAD,™ ISI Software,™ San Diego, Calif.). All samples were tested in duplicate and each assay was repeated at least twice. In the following table, KFAK is the repeat unit and multimers of KFAK were tested. IC50 and MIC are reported in μg/ml.
(§6) Because the antibacterial activity of the periodic peptides was so promising, further experiments were performed to determine if the periodic peptides also had antifungal activity. The experimental design was similar to that above, with accommodation made for fungal growth requirements, including the use of Sabouraud Dextrose Broth (SDB) and Sabouraud Dextrose Agar (SDA) slants.

C. albicans 10231 = format: cell-based; conditions: 10231
Procedure: as §4, §5, §6

HeLa cell line = test: HeLa MTS cellular reduction toxicity assay; format: cell-based; conditions: for TX50: 24 h, MTS
Procedure: The RBC protocol was from Blondelle (2000) and is described generally as follows: The toxicity toward the HeLa cell line was determined using a MTS (3-(4-5-dimethylthiazol-2-yl)-5-(3carboxymethoxyphenyl)-2-(4-sulfophenyl)-2H-tetrazolium, sodium salt) cellular reduction assay. MTS (2 mg/mL) was prepared in Dulbecco PBS (pH 7.35), filtered, aliquoted and stored at minus 20° C. In 96 well flat bottomed plates, cell suspensions (250 μL of 6×10^4 cell/mL in each well) were incubated for 48 h at 37° C. (5% CO2 incubator). The peptides (50 μL) were then added to the cell monolayer (following aspiration of the media from each well and addition of 50 μL of Dulbecco's Modified Eagles Medium) at varying concentrations derived from serial 2-fold dilutions, and the plates incubated for 24 h at 37° C. (5% CO2 incubator). Proliferation was then determined by adding a solution of phenazine methosulfate (PMS: 0.92 mg/mL in DPBS) to MTS at a 1:20 ration just prior to the assay. Twenty microliters MTS-PMS solution were added to each well and the plates incubated for 1 h at 37° C. (5% CO2 incubator). The relative percent toxicity was determined by comparing the absorbance at 490 nm of each peptide to the absorbance of cells without peptide. The TX50 (concentration required for 50% toxicity) was calculated using a sigmoidal curve fitting software (Graphpad Prism).

P. aeruginosa ATCC 10145 = conditions: ATCC 10145
Procedure: as §1, §2, §3

[2] = RBCs, concentration required for 50% toxicity, read-out: TX50
[3] = S. aureus (methicillin resistant) 33591, gram+

| Substance | % kill at 250 μg/ml (Red blood cells (RBC); RBCs, 250 μg/ml) | HC50 at 24 h (Red blood cell toxicity; [2]) | IC50 (E. coli ATCC 2592) | MIC (E. coli ATCC 2592) | IC50 [1, 3] | MIC [1, 3] | IC50 (Cr. Neoformans 32045) | MIC (Cr. Neoformans 32045) | IC50 (C. albicans 10231) | MIC (C. albicans 10231) | % kill at 500 μg/ml (HeLa cell line) | TX50 (HeLa cell line) | % kill at 250 μg/ml (Red blood cells (RBC)) | TX50 (Red blood cells (RBC)) | HC50 at 24 h (Red blood cell toxicity) | IC50 ([1]; ATCC 33591) | MIC ([1]; ATCC 33591) | IC50 (P. aeruginosa ATCC 10145) |
| --- | --- | --- | --- | --- | --- | --- | --- | --- | --- | --- | --- | --- | --- | --- | --- | --- | --- | --- |
| KFAKKFAKKFAKKFAKKFAK [KFAK (5), KFAK KFAK KFAK KFAK KFAK] | 4.1% | > 250 µg/mL | 6 µg/mL | 16 to 32 µg/mL | >250 µg/mL | >250 µg/mL | 5 µg/mL | 8 to 16 µg/mL | 66 µg/mL | 90 to 125 µg/mL | 89% | >500 µg/mL | – | – | – | – | – | – |
| KFAKKFAKKFAKKFAKKFAKKFAKKFAK [KFAK (7), KFAK KFAK KFAK KFAK KFAK KFAK KFAK] | – | – | 8 µg/mL | 32 to 62 µg/mL | – | – | – | 32 to 62 µg/mL | 82 µg/mL | 100 to 125 µg/mL | 13.0% | 204.1 µg/mL | 13.7% | >250 µg/mL | > 250 µg/mL | 108.8 µg/mL | >250 µg/mL | – |
| H-KFAKKFAKKFAKKFAKKFAKKFAK-OH [KFAK (6), KFAK KFAK KFAK KFAK KFAK KFAK] | – | – | 4 µg/mL | 8 to 16 µg/mL | – | – | 5.8 µg/mL | 16 to 32 µg/mL | 72 µg/mL | 80 to 125 µg/mL | 30.5% | 457.3 µg/mL | 7.3% | – | > 250 µg/mL | 38.7 µg/mL | 125 to 250 µg/mL | 5.6 µg/mL |
| KFAKKFAKKFAKKFAK [KFAK (4), KFAK KFAK KFAK KFAK] | 0.1% | > 250 µg/mL | 46 µg/mL | 62 to 125 µg/mL | >250 µg/mL | >250 µg/mL | 5.3 µg/mL | 6.0 to 8.0 µg/mL | 70 µg/mL | 90 to 125 µg/mL | 76% | >500 µg/mL | – | – | – | – | – | – |
